Reference: PubChem BioAssay (NCI)
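Assay format: 96-well plates, 48-hour exposure. TGI: total growth inhibition.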

How the values were obtained:
Assay in all cases: NCI anticancer screen, dose series, 48 h
NCI-H460 lung = system: NCI-H460 lung
OVCAR-8 ovarian = system: OVCAR-8 ovarian
MALME-3M melanoma = system: MALME-3M melanoma
SK-MEL-28 melanoma = system: SK-MEL-28 melanoma
UACC-257 melanoma = system: UACC-257 melanoma
SR leukemia = system: SR leukemia
A549 NSCLC = system: A549 NSCLC
OVCAR-5 ovarian = system: OVCAR-5 ovarian
NCI/ADR-RES ovarian = system: NCI/ADR-RES ovarian
MDA-N = system: MDA-N

Row | SMILES | TGI (NCI-H460 lung) [µM] | TGI (OVCAR-8 ovarian) [µM] | TGI (MALME-3M melanoma) [µM] | TGI (SK-MEL-28 melanoma) [µM] | TGI (UACC-257 melanoma) [µM] | TGI (SR leukemia) [µM] | TGI (A549 NSCLC) [µM] | TGI (OVCAR-5 ovarian) [µM] | TGI (NCI/ADR-RES ovarian) [µM] | TGI (MDA-N) [µM]
1 | COc1cc2nc(-c3cccs3)nc(N3C(c4cc(OC)c(OC)c(OC)c4)=NNC(=O)c4ccccc43)c2cc1OC | > 100 | > 100 | 45 | 81.6 | > 100 | > 100 | > 100 | 54.5 | 9.25 | –
2 | CC(C)(CO)CNc1cc(Cl)nc(N)n1 | > 100 | > 100 | > 100 | > 100 | > 100 | > 100 | > 100 | > 100 | > 100 | > 100
3 | Cc1cc(S(=O)(=O)Nc2n[nH]c(Nc3ccccc3)n2)c(SSc2cc(Cl)c(C)cc2S(=O)(=O)Nc2n[nH]c(Nc3ccccc3)n2)cc1Cl | > 100 | > 100 | > 100 | > 100 | > 100 | > 100 | > 100 | > 100 | > 100 | > 100
4 | COc1ccc(C2=Nc3c(nc(SC)[nH]c3=O)NC(c3ccccc3)C2)cc1 (configuration not stated) | – | 40.7 | > 100 | – | 57.4 | > 100 | 66.5 | > 100 | 77.3 | 35.4
5 | Fc1ccc2c(c1)nc1n2C(c2c(F)cccc2F)SC1 (configuration not stated) | > 100 | > 100 | > 100 | > 100 | > 100 | 58.5 | > 100 | > 100 | > 100 | > 100
6 | CNC(=O)C1OC(n2cnc3c(NCc4cccc(I)c4)nc(Cl)nc32)C(O)C1O (configuration not stated) | – | 26.7 | 19.6 | – | 23.8 | 59.6 | – | 27 | 24 | 55.4
7 | CCOC(=O)C1CCCN1C(=O)c1ccccc1Cl (configuration not stated) | > 100 | > 100 | > 100 | > 100 | > 100 | > 100 | > 100 | > 100 | > 100 | > 100
8 | CC1C(c2ccccc2)NC(c2ccccc2)CC1(N)C#N (configuration not stated) | > 100 | > 100 | – | > 100 | > 100 | > 100 | > 100 | > 100 | > 100 | > 100
9 | Cc1ccsc1/C=N/Nc1cc(C)c2ccccc2n1 | – | 32.7 | – | 30.2 | 21 | – | 52.3 | 90.3 | 31 | 29.3
10 | Cc1ccc(S(=O)(=O)N/N=C\c2c3ccccc3[n+](C)c3ccccc23)cc1 | 50.3 | > 100 | 95.3 | > 100 | > 100 | – | > 100 | > 100 | – | –
11 | O=C1Nc2ccccc2SC1=C(C(=O)c1ccccc1)C(=O)c1ccccc1 | > 86.8 | > 100 | > 100 | > 100 | > 88 | > 100 | > 100 | > 91.1 | > 100 | 48.8
